Experimental data as given in ChEMBL document CHEMBL1159197, “Novel bromopyrrole alkaloids from the sponge Agelas dispar” (1998).
≈ marks a conversion by molar mass, not a printed value. Calls of active or inactive are those of the source. The calls are words filed in the database; no cut-off is given here.

Experiments:
Staphylococcus aureus = experiment: Antimicrobial activity against Staphylococcus aureus ATCC 6538; assay type: functional
Bacillus subtilis = experiment: Antimicrobial activity against Bacillus subtilis ATCC 6633; assay type: functional
Aspergillus niger = experiment: Antimicrobial activity against Aspergillus niger; assay type: functional, organism-based

MIC (Staphylococcus aureus)	MIC (Bacillus subtilis)	Structure (SMILES)	Activity (Staphylococcus aureus)	Activity (Bacillus subtilis)	Activity (Aspergillus niger)
		C[C@]1(C[C@@H](NC(=O)c2cc(Br)c[nH]2)C(=O)O)CNC=N1	inactive	inactive	Active
55 µg/mL (≈ 156 µM)	45 µg/mL (≈ 128 µM)	O=C(O)C[C@H]1CNC(=O)c2cc(Br)c(Br)n21 [LONGAMIDE B]			
		C[N+]1=CNC[C@]1(C)C[C@@H](NC(=O)c1cc(Br)c[nH]1)C(=O)[O-]			Active
35 µg/mL (≈ 108 µM)	40 µg/mL (≈ 123 µM)	Cn1c(/C=C\CNC(=O)c2cc(Br)c[nH]2)cnc1N [KERAMADINE]			
		C[N+]1=CNC[C@]1(C)C[C@H](NC(=O)c1cc(Br)c[nH]1)C(=O)[O-]			Active
		C[C@]1(C[C@H](NC(=O)c2cc(Br)c[nH]2)C(=O)O)CNC=N1	inactive	inactive	Active
